Patent US8420637B2, “Abnormal cannabidiols as agents for lowering intraocular pressure” (Allergan, Inc., priority 2006, dated 2013)

System: Laser-induced unilaterally ocular hypertensive Cynomolgus monkeys
Assay: Intraocular pressure by applanation pneumatonometry in conscious animals
Assay type: in vivo
Parameters: key: *: one star indicates no potency; ***: three stars indicates a very potent compound
Settings: topical to one eye, dosed once, IOP measured over the course of 24 hours; female ocular hypertensive Cynomolgus monkeys
Protocol: Intraocular pressure was measured by applanation pneumatonometry in conscious animals. The test compound was administered topically to one eye while vehicle was given to the fellow eye in a masked fashion. Laser-induced unilaterally ocular hypertensive Cynomolgus monkeys (females) were dosed once and the IOP was measured over the course of 24 hours.
The results are shown in the Table, below wherein the stars indicating the potency of the compound. That is, one star indicates no potency, three stars indicates a very potent compound.

Row | Structure (SMILES) | Efficacy
1 | Oc1cc(O)c(C2CCCCC2)c(Cl)c1 [9 (b), 5-Chloro-4-cyclohexylbenzene-1,3-diol] | ***
2 | C=C(C)C1CCC(C)=CC1c1c(O)cc(O)cc1Cl (stereo not drawn) [Example 5, 5-Chloro-4-(6-Isopropenyl-3-methylcyclohex-2-enyl)benzene-1,3-diol] | ***
3 | CC1CC(=O)CC(=O)N1C1CCCCC1 (stereo not drawn) [Example 20, 1-Cyclohexyl-6-methylpiperidine-2,4-dione] | ***
